Test results as given in ChEMBL document CHEMBL5154671 (Eur J Med Chem, 2022).
Activity calls are given as the source filed them.

Key:
[1] = target: T1, Peroxisome proliferator-activated receptor delta (Homo sapiens, UniProt Q03181); assay: Agonist activity at human PPARdelta measured by dual luciferase reporter gene assay
T1 sequence (Q03181 whole entry): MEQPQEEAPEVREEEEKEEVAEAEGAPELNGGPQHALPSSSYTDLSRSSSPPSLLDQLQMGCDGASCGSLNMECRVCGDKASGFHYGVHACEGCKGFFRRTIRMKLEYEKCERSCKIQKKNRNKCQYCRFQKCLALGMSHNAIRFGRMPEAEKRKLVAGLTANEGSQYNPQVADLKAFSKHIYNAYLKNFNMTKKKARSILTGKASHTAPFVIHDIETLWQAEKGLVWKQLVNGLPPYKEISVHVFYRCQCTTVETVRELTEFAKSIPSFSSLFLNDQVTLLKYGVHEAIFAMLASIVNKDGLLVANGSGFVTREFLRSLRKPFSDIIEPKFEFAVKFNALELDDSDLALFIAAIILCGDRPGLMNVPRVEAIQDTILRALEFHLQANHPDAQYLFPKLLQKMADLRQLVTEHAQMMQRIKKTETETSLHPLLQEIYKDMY

Mus musculus [2] = assay: Protection against CCl4-induced liver fibrosis in male C57BL/6 mouse assessed as decrease in hepatic hydroxyproline content at 100 mg/kg […]; assay type: functional, organism-based
[3] = Acute toxicity in ICR mouse assessed as change in serum DBIL level at 500 mg/kg, IG; assay type: organism-based; conditions: in vivo, po
Mus musculus [4] = assay: Anti-NASH activity in high-fat/high-sugar diet and CCl4-induced nonalcoholic steatohepatitis male C57BL/6 mouse assessed as increase in HDL level at 100 mg/kg, po administered for 4 weeks; assay type: functional, organism-based
Mus musculus [5] = assay: Anti-NASH activity in high-fat/high-sugar diet and CCl4-induced nonalcoholic steatohepatitis male C57BL/6 mouse assessed as decrease in ACC mRNA expression at 100 mg/kg, po administered for 4 weeks; assay type: functional, organism-based
Mus musculus [6] = assay: Protection against liver fibrosis in high-fat/high-sugar diet and CCl4-induced nonalcoholic steatohepatitis male C57BL/6 mouse assessed as decrease in collagen area at 100 mg/kg, po administered for 4 weeks; assay type: functional, organism-based
Mus musculus [7] = assay: Anti-NASH activity in high-fat/high-sugar diet and CCl4-induced nonalcoholic steatohepatitis male C57BL/6 mouse assessed as decrease in SCD1 mRNA expression at 100 mg/kg, po administered for 4 weeks; assay type: functional, organism-based
[8] = Acute toxicity in ICR mouse assessed as change in serum ALB level at 500 mg/kg, IG; assay type: organism-based; conditions: in vivo, po
[9] = target: T2, Peroxisome proliferator-activated receptor gamma (Homo sapiens, UniProt P37231); assay: Agonist activity at human PPARgamma measured by dual luciferase reporter gene assay
T2 sequence (P37231 whole entry): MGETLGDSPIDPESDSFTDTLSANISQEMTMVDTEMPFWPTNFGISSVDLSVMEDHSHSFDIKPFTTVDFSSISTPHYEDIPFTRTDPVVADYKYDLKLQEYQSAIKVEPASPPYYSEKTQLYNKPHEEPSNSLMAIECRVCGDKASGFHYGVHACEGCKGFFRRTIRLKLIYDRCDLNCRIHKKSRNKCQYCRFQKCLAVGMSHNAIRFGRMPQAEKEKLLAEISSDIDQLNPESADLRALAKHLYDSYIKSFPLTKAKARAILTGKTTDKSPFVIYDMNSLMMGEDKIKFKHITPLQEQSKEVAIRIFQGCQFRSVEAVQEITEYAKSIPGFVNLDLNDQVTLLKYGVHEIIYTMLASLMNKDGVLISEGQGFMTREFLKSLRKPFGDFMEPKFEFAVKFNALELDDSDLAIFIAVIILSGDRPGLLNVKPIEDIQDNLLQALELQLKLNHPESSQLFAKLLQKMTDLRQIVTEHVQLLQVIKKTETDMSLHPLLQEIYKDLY

[10] = target: Free fatty acid receptor 1 (Homo sapiens, UniProt O14842); assay: Agonist activity at human FFA1 expressed in CHO cells measured by FLIPR assay; assay type: functional, cell-based
Sequence of Free fatty acid receptor 1 (O14842 whole entry): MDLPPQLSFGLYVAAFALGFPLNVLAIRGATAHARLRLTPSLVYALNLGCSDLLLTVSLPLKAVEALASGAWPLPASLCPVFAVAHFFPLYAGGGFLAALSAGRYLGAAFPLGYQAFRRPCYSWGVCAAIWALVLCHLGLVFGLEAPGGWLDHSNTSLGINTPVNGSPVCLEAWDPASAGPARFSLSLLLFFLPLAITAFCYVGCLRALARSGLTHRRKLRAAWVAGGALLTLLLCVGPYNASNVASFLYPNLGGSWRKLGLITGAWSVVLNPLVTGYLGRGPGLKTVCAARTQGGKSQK

[11] = Acute toxicity in ICR mouse assessed as change in serum urea level at 500 mg/kg, IG; assay type: organism-based; conditions: in vivo, po
Mus musculus [12] = assay: Hypolipidemic activity in Triton1339W-induced hyperlipidemic ICR mouse model assessed as reduction in plasma TC level at 80 mg/kg, administered once daily for 5 days; assay type: functional, organism-based; conditions: time 5.0 day
Mus musculus [13] = assay: Anti-NASH activity in high-fat/high-sugar diet and CCl4-induced nonalcoholic steatohepatitis male C57BL/6 mouse assessed as decrease in serum TG level at 100 mg/kg, po administered for 4 weeks; assay type: functional, organism-based
Mus musculus [14] = assay: Anti-NASH activity in high-fat/high-sugar diet and CCl4-induced nonalcoholic steatohepatitis male C57BL/6 mouse assessed as decrease in F4/80 expression at 100 mg/kg, po administered for 4 weeks; assay type: functional, organism-based
[15] = Acute toxicity in ICR mouse assessed as change in serum AST level at 500 mg/kg, IG; assay type: organism-based; conditions: in vivo, po
Mus musculus [16] = assay: Anti-NASH activity in high-fat/high-sugar diet and CCl4-induced nonalcoholic steatohepatitis male C57BL/6 mouse assessed as decrease in hepatocyte ballooning score at 100 mg/kg, po administered for 4 weeks; assay type: functional, organism-based
Mus musculus [17] = assay: Anti-NASH activity in high-fat/high-sugar diet and CCl4-induced nonalcoholic steatohepatitis male C57BL/6 mouse assessed as decrease in hepatic TG level at 100 mg/kg, po administered for 4 weeks; assay type: functional, organism-based
Mus musculus [18] = assay: Anti-NASH activity in high-fat/high-sugar diet and CCl4-induced nonalcoholic steatohepatitis male C57BL/6 mouse assessed as decrease in liver non-esterified fatty acid contents at 100 mg/kg, po administered for 4 weeks; assay type: functional, organism-based
Mus musculus [19] = assay: Anti-NASH activity in high-fat/high-sugar diet and CCl4-induced nonalcoholic steatohepatitis male C57BL/6 mouse assessed as decrease in FAS mRNA expression at 100 mg/kg, po administered for 4 weeks; assay type: functional, organism-based
Mus musculus [20] = assay: Anti-NASH activity in high-fat/high-sugar diet and CCl4-induced nonalcoholic steatohepatitis male C57BL/6 mouse assessed as decrease in disease activity score at 100 mg/kg, po administered for 4 weeks; assay type: functional, organism-based
[21] = Acute toxicity in ICR mouse assessed as change in serum creatinine level at 500 mg/kg, IG; assay type: organism-based; conditions: in vivo, po
Mus musculus [22] = assay: Anti-inflammatory activity in high-fat/high-sugar diet and CCl4-induced nonalcoholic steatohepatitis male C57BL/6 mouse assessed as decrease in TNF-alpha mRNA expression at 100 mg/kg, po administered for 4 weeks; assay type: functional, organism-based
[23] = Acute toxicity in ICR mouse assessed as change in serum ALT level at 500 mg/kg, IG; assay type: organism-based; conditions: in vivo, po
Mus musculus [24] = assay: Anti-fibrotic activity in high-fat/high-sugar diet and CCl4-induced nonalcoholic steatohepatitis male C57BL/6 mouse assessed as decrease in COL1A1 mRNA expression at 100 mg/kg, po administered for 4 weeks; assay type: functional, organism-based
[25] = Acute toxicity in ICR mouse assessed as change in serum TBIL level at 500 mg/kg, IG; assay type: organism-based; conditions: in vivo, po
Mus musculus [26] = assay: Anti-NASH activity in high-fat/high-sugar diet and CCl4-induced nonalcoholic steatohepatitis male C57BL/6 mouse assessed as decrease in hepatic TC level at 100 mg/kg, po administered for 4 weeks; assay type: functional, organism-based
[27] = Half-life in rat liver microsomes in presence of NADPH measured by LC/MS analysis; assay type: ADME, Microsome

COc1ccc(/C=C/c2cc(OC)cc(OCc3ccc(OCC(=O)O)c(F)c3)c2)cc1
28.5 µM: EC50 [9]
51.2 min: half-life [27]
4.8 µM: EC50 [1]
active: Activity (Mus musculus [2]) | Activity (Mus musculus [4]) | Activity (Mus musculus [5]) | Activity (Mus musculus [6]) | Activity (Mus musculus [7]) | Activity (Mus musculus [12]) | Activity (Mus musculus [13]) | Activity (Mus musculus [14]) | Activity (Mus musculus [16]) | Activity (Mus musculus [17]) | Activity (Mus musculus [18]) | Activity (Mus musculus [19]) | Activity (Mus musculus [20]) | Activity (Mus musculus [22]) | Activity (Mus musculus [24]) | Activity (Mus musculus [26])
1.5 µM: EC50 [10]
Non-Toxic: Activity [3] | Activity [8] | Activity [11] | Activity [15] | Activity [21] | Activity [23] | Activity [25]
